Laboratory results from patent publication US9986740B2, “Methods of identifying insect-TRPA1 modulators” (BRANDEIS UNIVERSITY, priority 2010, dated 2018).
Changes are numbered by the printed parent chain. Entries after “also recorded” stand apart in the source; their conditions may differ. Like-named read-outs stand apart in the source and are kept apart here.

Legend:
dTRPA1 [1] = target: T1, dTRPA1 (Drosophila melanogaster, UniProt Q7Z020); assay: Two-electrode voltage clamping on Xenopus laevis oocytes expressing dTRPA1; format: cell-based
T1 sequence (Q7Z020 1-1197): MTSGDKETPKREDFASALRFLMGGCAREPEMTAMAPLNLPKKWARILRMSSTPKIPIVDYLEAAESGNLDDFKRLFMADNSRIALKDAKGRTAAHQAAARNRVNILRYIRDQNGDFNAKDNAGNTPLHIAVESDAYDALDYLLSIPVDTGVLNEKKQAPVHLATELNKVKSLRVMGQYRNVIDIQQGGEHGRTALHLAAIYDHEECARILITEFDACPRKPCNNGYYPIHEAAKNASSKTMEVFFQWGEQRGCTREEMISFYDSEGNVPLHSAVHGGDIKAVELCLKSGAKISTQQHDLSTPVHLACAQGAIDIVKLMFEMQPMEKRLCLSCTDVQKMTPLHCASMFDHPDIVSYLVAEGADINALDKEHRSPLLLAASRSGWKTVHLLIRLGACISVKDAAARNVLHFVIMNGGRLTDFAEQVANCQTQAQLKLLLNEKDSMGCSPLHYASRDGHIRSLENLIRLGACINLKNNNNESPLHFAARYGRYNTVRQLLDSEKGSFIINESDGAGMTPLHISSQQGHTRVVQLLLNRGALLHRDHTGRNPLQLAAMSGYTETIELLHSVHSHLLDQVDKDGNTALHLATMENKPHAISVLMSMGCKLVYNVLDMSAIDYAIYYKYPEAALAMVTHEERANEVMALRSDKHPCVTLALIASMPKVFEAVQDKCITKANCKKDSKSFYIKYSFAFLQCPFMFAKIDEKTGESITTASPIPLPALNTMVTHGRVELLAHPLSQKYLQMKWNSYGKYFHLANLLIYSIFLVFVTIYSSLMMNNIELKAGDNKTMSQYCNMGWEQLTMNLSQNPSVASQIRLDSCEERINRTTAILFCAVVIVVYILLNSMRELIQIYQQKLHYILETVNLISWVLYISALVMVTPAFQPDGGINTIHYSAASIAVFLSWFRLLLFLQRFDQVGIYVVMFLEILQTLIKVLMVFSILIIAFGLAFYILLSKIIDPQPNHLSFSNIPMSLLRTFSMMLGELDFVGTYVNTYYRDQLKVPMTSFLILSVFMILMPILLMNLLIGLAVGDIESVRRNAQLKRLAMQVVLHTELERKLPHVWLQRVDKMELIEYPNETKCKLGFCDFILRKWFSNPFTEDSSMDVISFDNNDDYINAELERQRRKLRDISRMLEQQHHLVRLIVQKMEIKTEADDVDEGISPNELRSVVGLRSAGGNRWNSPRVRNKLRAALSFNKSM

mammalian TRPA1s = settings: conserved cysteine-independent; cited from earlier work
dTRPA1 [2] = target: T1, dTRPA1; settings: cited from earlier work
agTRPA1 = settings: cited from earlier work
Drosophila flies = assay: Proboscis extension response (PER) behavioral assay; format: in vivo, Drosophila melanogaster; settings: for Effect on PER in dTrpA1 loss-of-function mutants / Effect on PER in painless mutants / Effect on proboscis extension response (PER) / feeding: ingestion permitted; for Acceptance on first offering: first of five tastant offerings; for Effect on PER in painless mutants: painless mutant flies; for Effect on proboscis extension response (PER) / feeding: 350 mM sucrose with 2 mM AITC
uninjected oocytes = assay: Two-electrode voltage clamping on uninjected oocytes; format: cell-based, Xenopus laevis; settings: 3 mM AITC, 1 mM CA, 0.1 mM NMM
dTRPA1-2C = target: T2, dTRPA1-2C (Drosophila melanogaster, UniProt Q7Z020, C650S/C670S); assay: Two-electrode voltage clamping on oocytes expressing mutant dTRPA1-2C; format: cell-based; settings: cysteines 650 and 670 mutated to serines; 0.1, 0.5, 1.0 mM AITC
T2 construct: expressed in transfected cells; host or cells: Xenopus laevis oocytes
T2 sequence (Q7Z020 1-1197 C650S/C670S): T1 sequence (Q7Z020 1-1197) with C650S, C670S
Experimental: Oocyte and larval physiology were performed largely as described in Hamada, et al., Nature 454, 217-220 (2008) and Pulver, et al., J Neurophysiol 101, 3075-3088 (2009), with additional details provided in below. Chemical sensitivities of wild type and mutant (dTRPA1-2C) channels were assessed by normalizing all currents to currents observed at 1 mM AITC.
Agonist-evoked dTRPA1 currents were recorded as previously described in (Hamada, et al., Nature 454, 217-220 (2008)), with the following modifications. Agonists of interest were added to the oocyte perfusion buffer (96 mM NaCl, 1 mM MgCl2, 4 mM KCl, and 5 mM HEPES, pH 7.6). Voltage was initially held at −60 mV, and a 300-ms voltage ramp (−60 mV to 60 mV) per sec was applied to dTRPA1- or AgTRPA1-expressing oocytes during perfusion of agonist-containing buffer. Typical oocyte resting membrane potentials were between −25 and −60 mV. […] EC50s for wild type dTRPA1 channels were obtained at −60 mV, with AITC provided for 60 sec with 30 sec intervals between increasing concentrations.
Substitutions of cysteine/lysine residues in dTrpA1 were made by swapping a region of wild type cDNA sequence including codons of cysteine or lysine with mutated cassettes. […]

mammalian nociceptors = settings: cited from earlier work
flies = settings: in vivo; cited from earlier work
nematodes = settings: in vivo; cited from earlier work
[3] = wild-type dTRPA1 in Xenopus oocytes
[4] = wild type flies, 10 mM NMM or 6 mM CA

CC1(C)[C@H](C(=O)O[C@H](C#N)c2cccc(Oc3ccccc3)c2)[C@@H]1C=C(Br)Br [deltamethrin]
Activation of dTRPA1 (dTRPA1 [1]): failed to activate

CCCCN(CCC(=O)OCC)C(C)=O [IR-3535]
Activation of dTRPA1 (dTRPA1 [1]; [3]): failed to activate

CN1CCCC1c1cccnc1 (centres unmarked) [nicotine]
Activation of dTRPA1 (dTRPA1 [1]): did not activate | Response of dTRPA1 expressing oocytes (dTRPA1 [1]): did not respond | Activity on mammalian TRPA1s (mammalian TRPA1s): agonists

N.N.N.N.N.N.N.N.N.N.N.N.N.N.[Cl-].[Cl-].[Cl-].[Cl-].[Cl-].[Cl-].[O-2].[O-2].[Ru+3].[Ru+3].[Ru+4] [ruthenium red]
Inhibition of agonist-elicited currents (dTRPA1 [1]; 100 μM ruthenium red applied): inhibited | Inhibition of warmth-activated dTRPA1 currents (dTRPA1 [2]): partially inhibits | Inhibition of warmth-activated agTRPA1 currents (agTRPA1): partially inhibits

CN1C(=O)C=CC1=O [NMM, N-methyl-maleimide]
Effect on PER in dTrpA1 loss-of-function mutants (Drosophila flies): no reduction | Acceptance on first offering (Drosophila flies): usually accepted | Effect on ingestion in previously published ingestion-independent PER assay (Drosophila flies; ingestion-independent PER assay of Al-Anzi et al.): no effect | Effect on PER in painless mutants (Drosophila flies): significantly inhibited | Change of the compound's effect on PER upon dTRPA1 knockdown (Drosophila flies; tissue-specific dTRPA1 RNAi with Dll-Gal4, MJ94-Gal4 or Gr66a-Gal4, 10 mM NMM in 350 mM sucrose): robustly reduced | Effect on proboscis extension response (PER) / feeding (Drosophila flies; [4]): robustly inhibited | Response of uninjected oocytes (uninjected oocytes): did not respond

C=CCN=C=S [AITC, allyl isothiocyanate]
Effect on PER in dTrpA1 loss-of-function mutants (Drosophila flies): no reduction | Acceptance on first offering (Drosophila flies): usually accepted | Effect on PER in painless mutants (Drosophila flies): significantly inhibited | Effect on proboscis extension response (PER) / feeding (Drosophila flies; [4]): dramatically inhibited | Activation of dTRPA1 (dTRPA1 [1]): activated | AITC sensitivity of dTRPA1-2C versus wild type (dTRPA1-2C): low sensitivity; also recorded: significantly decreased | Response of uninjected oocytes (uninjected oocytes): did not respond

CCN(CC)C(=O)c1cccc(C)c1 [DEET, N,N-diethyl-m-toluamide]
Activation of dTRPA1 (dTRPA1 [1]; [3]): failed to activate

2-aminoethoxydiphenyl borate [2-APB]
Activity on mammalian TRPA1s (mammalian TRPA1s): agonists

COc1cc(CNC(=O)CCCC/C=C/C(C)C)ccc1O [capsaicin]
Effect on mammalian nociceptors (mammalian nociceptors): activates | Acute response in flies (flies): no acute response | Acute response in nematodes (nematodes): no acute response

Cn1c(=O)c2c(ncn2C)n(C)c1=O [caffeine]
Effect on PER in dTrpA1 loss-of-function mutants (Drosophila flies): inhibited | Effect on PER when only leg contact with food permitted (Drosophila flies; wild type flies, tastant contacts only legs, 350 mM sucrose with 100 mM caffeine, 2 mM AITC, 10 mM NMM or 6 mM CA): robustly inhibited
